Data reported in patent US8058476B2, “HCI polymorphs of 3-((2-(dimethylamino)methyl(cyclohex-1-yl)) phenol” (priority 2005, dated 2011).
Entries after “also recorded” stand apart in the source; their conditions may differ. Where a name gives a salt, the structure may show the parent alone. Read-outs that look alike come from different tables or passages of the source.

Tests used:
[1] = Stability in air / chemical stability (description); conditions: for stability in air: normal conditions / ambient temperature
[2] = Absorption of water by dynamic vapour sorption (DVS); type: physicochemical; conditions: 25° C.; for water content of the sample if the relative air humidity is reduced to 0%: 0% relative air humidity; for water content of the sample if the relative air humidity is reduced to 0% / water content at 50% relative air humidity at the end of the measuring cycle / relative air humidity above which the crystalline form absorbs water very quickly: hydrochloride
Protocol: The absorption of water is ascertained by dynamic vapour sorption (DVS) with a DVS-1 instrument manufactured by Surface Measurement Systems Ltd. The sample is placed in a platinum crucible at the pivot of a microbalance. The sample is then initially equilibrated at 50% relative air humidity and then subjected to a predefined measuring program. The temperature was 25° C. The change in weight of the sample is determined.

[3] = for sequence of stability at room temperature: conditions for avoiding the formation of solvates, from Examples 8.1 to 8.4; for crystalline form found by Raman spectrum: Example 8.4: forms IV and II together in ethyl acetate
[4] = Hydrate formation in the presence of atmospheric moisture (description); type: physicochemical; conditions: for relative air humidity at which hydrates of the crystalline form V are formed: hydrochloride
[5] = Thermodynamic stability of the crystalline form (description); type: physicochemical; conditions: low temperatures
[6] = Humid storage of the crystalline forms II and III at 25° C. and 60% relative air humidity; type: physicochemical
Protocol: Storage conditions: 25° C. and 60% relative air humidity for 5 hrs, 24 hrs and 7 days
The substances were weighed directly into DSC and TGA crucibles, and these crucibles were stored in a climate chamber.
50 mg of the substances were weighed into 1 ml vials, three times in each case, and these vials were then stored openly in a climate chamber.

[7] = Example 8.1: forms I and II together in ethyl acetate, eleven days, 25° C.
[8] = presence of atmospheric moisture
[9] = Example 8.3: forms III and II together in ethyl acetate, three days, 23° C.
[10] = stir-mixing in ethyl acetate, 23° C.
[11] = 25° C., 60% relative air humidity, 24 hours, second test series

## CN(C)CC1CCCCC1c1cccc(O)c1 [Amorphous compounds of the formula (1), (1R,2R)-3-[2-(dimethylamino)-methyl(cyclohex-1-yl)]phenol hydrochloride]
[1]; in the presence of moisture tends to form hydrates
  stability of the amorphous form: not very stable

## CN(C)C[C@@H]1CCCC[C@H]1c1cccc(O)c1.Cl [crystalline form I, (1R,2R)-3[-2-(dimethylamino)methyl-(cyclohex-1-yl)]phenol hydrochloride]
[2]
  water content of the sample if the relative air humidity is reduced to 0%: 3.2 wt. %
  water content at 50% relative air humidity at the end of the measuring cycle: 7.2%
  recorded Raman spectrum at the end of the measuring cycle: corresponds to the Raman spectrum of the crystalline form V
  relative air humidity above which the crystalline form absorbs water very quickly: > 50%
[3]; [7]
  crystalline form found by Raman spectrum after stirring: predominantly contained the crystalline form I and small amounts of form V
[3]
  sequence of stability at room temperature: I>II>III≈IV
[4]; [8]
  relative air humidity at which hydrates of the crystalline form V are formed: > 50%
[5]
  temperature up to which the form is thermodynamically the most stable form: approximately 40 °C

## CN(C)C[C@@H]1CCCC[C@H]1c1cccc(O)c1.Cl [crystalline form II, (1R,2R)-3-[2-(dimethylamino)methyl-(cyclohex-1-yl)]phenol hydrochloride]
[2]
  water content of the sample if the relative air humidity is reduced to 0%: 3.3 wt. %
  water content at 50% relative air humidity at the end of the measuring cycle: 7.9%
  recorded Raman spectrum at the end of the measuring cycle: corresponds to the Raman spectrum of the crystalline form V
  relative air humidity above which the crystalline form absorbs water very quickly: > 75%
[3]; [7]
  crystalline form found by Raman spectrum after stirring: predominantly contained the crystalline form I and small amounts of form V
[3]; [9]
  crystalline form found by Raman spectrum after stirring: only bands of the crystalline form II are measured
[3]; 23° C., after 32 days
  crystalline form found by Raman spectrum: almost exclusively the crystalline form I was detected
[3]; 23° C., after the first three days
  crystalline form found by Raman spectrum: the first traces of the crystalline form I were detected
[3]; 23° C., initially
  crystalline form found by Raman spectrum: only bands of the crystalline form II were measured
[3]
  sequence of stability at room temperature: I>II>III≈IV
[3]; [10]
  time at which a small proportion of the crystalline form I can be detected: after three days of stir-mixing
  time until complete conversion into the crystalline form I: 32 days
[6]; 25° C., 60% relative air humidity, 5 hours, first test series (DSC and TGA crucibles), listed as modification II, hydrochloride
  water absorbed: 0.04%
[6]; 25° C., 60% relative air humidity, 5 hours, second test series (50 mg in open 1 ml vials), listed as modification II, hydrochloride
  water absorbed: 0.12%
[6]; 25° C., 60% relative air humidity, 24 hours, first test series, listed as modification II, hydrochloride
  water absorbed: 3.28%
[6]; [11]
  water content: 6.08%
[6]; 25° C., 60% relative air humidity, both test series
  water-absorption behavior: absorbs water more slowly in both tests than modification III
[6]; 25° C., 60% relative air humidity, one week, first test series, listed as modification II, hydrochloride
  water content: 7.03%
[6]; 25° C., 60% relative air humidity, one week, second test series, listed as modification II, hydrochloride
  water content: 7.04%
[6]; 5 hours of storage at a relative air humidity of 60%
  proportion of water after storage: < 0.15 wt. %
[4]; compared with other crystalline forms
  hygroscopicity: less hygroscopic than the compounds of the crystalline forms I, III and IV
[4]; [8]
  relative air humidity at which hydrates of the crystalline form V are formed (only slowly): > 70%
  relative air humidity at which hydrates of the crystalline form V are formed: > 70%
[1]
  chemical stability: good chemical stability
  stability in air: stable under normal conditions in air and with exclusion of atmospheric moisture

## CN(C)C[C@@H]1CCCC[C@H]1c1cccc(O)c1.Cl [crystalline form III, (1R,2R)-3-[2-(dimethylamino)methyl-(cyclohex-1-yl)]phenol hydrochloride]
[2]
  water content of the sample if the relative air humidity is reduced to 0%: 3.1 wt. %
  water content at 50% relative air humidity at the end of the measuring cycle: 7.8%
  recorded Raman spectrum at the end of the measuring cycle: corresponds to the Raman spectrum of the crystalline form V
  relative air humidity above which the crystalline form absorbs water very quickly: > 55%
[3]; Example 8.2: forms III and IV together in ethyl acetate, twelve days, 23° C.
  crystalline form found by Raman spectrum after stirring: only bands of the crystalline form I were measured
[3]; [9]
  crystalline form found by Raman spectrum after stirring: only bands of the crystalline form II are measured
[3]
  sequence of stability at room temperature: I>II>III≈IV
[6]; 25° C., 60% relative air humidity, 5 hours, first test series (DSC and TGA crucibles), listed as modification III, hydrochloride
  water absorbed: 6.70%
[6]; 25° C., 60% relative air humidity, 5 hours, second test series (50 mg in open 1 ml vials), listed as modification III, hydrochloride
  water absorbed: 1.92%
[6]; 25° C., 60% relative air humidity, 24 hours, first test series, listed as modification III, hydrochloride
  water absorbed: 6.28%
[6]; [11]
  water content: 6.08%
[6]; 25° C., 60% relative air humidity, one week, first test series, listed as modification III, hydrochloride
  water content: 6.74%
[6]; 25° C., 60% relative air humidity, one week, second test series, listed as modification III, hydrochloride
  water content: 6.83%
[4]; [8]
  relative air humidity at which hydrates of the crystalline form V are formed: > 50%
[1]
  stability in air: stable under normal conditions in air and with exclusion of atmospheric moisture

## CN(C)CC1CCCCC1c1cccc(O)c1 [crystalline form IV, (1R,2R)-3-[2-(dimethylamino)methyl(cyclohex-1-yl)]phenol hydrochloride]
[3]
  sequence of stability at room temperature: I>II>III≈IV
[1]; hydrochloride
  stability in air: stable under normal conditions in air and with exclusion of atmospheric moisture

## CN(C)CC1CCCCC1c1cccc(O)c1 [crystalline form V, (1R,2R)-3-[2-(dimethylamino)methyl(cyclohex-1-yl)]phenol hydrochloride]
[1]; hydrochloride
  stability in air: stable in air under normal conditions; also recorded: stable at ambient temperature in air
